Consider 11 compounds from ChEMBL document CHEMBL1201862, “PubChem BioAssay data set” (2004).

Molecules are shown by their SMILES.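 How tested: cells in 96-well plates exposed to compound for 48 hours at five concentrations. Here, GI50 denotes the concentration required for 50% inhibition of growth.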 Active and inactive are the calls of the source. No stated cut-off is given here; in the data, active = GI50 up to about 1.1 µM and inactive = higher.

Among the test systems are OVCAR-3; CAKI-1; SW-620; SK-MEL-5; TK-10; HL-60; PC-3; M14; NCI-H23; SNB-75; MDA-MB-435; SF-295; SF-539; EKVX; SN12C; UACC-257; OVCAR-5; T47D; UACC-62.
Holding throughout (experiment): growth of human tumour cells (NCI), 48 h

In the case of `CC(C)(C)c1cc(C(=O)/C=C/c2cc[nH]n2)cc(C(C)(C)C)c1O`, the GI50 was 2.75 µM (inactive) with OVCAR-3; 2.48 µM (inactive) in the assay on CAKI-1; 2.33 µM (inactive) with SW-620; 7.52 µM (inactive) in the assay on SK-MEL-5; 1.54 µM (inactive) in the assay on TK-10; 2.23 µM (inactive) with HL-60. Moreover, the GI50 in the assay on PC-3 was 2.08 µM (inactive); in the assay with M14, 1.82 µM (inactive); in the assay with NCI-H23 it was 2.78 µM (inactive); with SNB-75 it was 4.61 µM (inactive); in the assay on MDA-MB-435 it was 2.77 µM (inactive); with SF-295, 13.7 µM (inactive). Moreover, the GI50 in the assay on SF-539 was 3.85 µM (inactive); in the assay with EKVX it was 13.4 µM (inactive); with SN12C, 1.85 µM (inactive); in the assay on UACC-257 it was 3.24 µM (inactive); in the assay on OVCAR-5, 5.37 µM (inactive); in the assay with T47D, 1.11 µM (active). In the assay with UACC-62, the GI50 was 3.26 µM (inactive).

Regarding `COc1ccccc1/C=C1\CCC(CNc2ccc(Cl)cc2)C1=O` (configuration not stated), the GI50 with OVCAR-3 is 10.2 µM (inactive); in the assay on CAKI-1 it was 2.42 µM (inactive); in the assay on SW-620, 2.09 µM (inactive); in the assay with SK-MEL-5 it was 3.16 µM (inactive); in the assay with TK-10, 5.18 µM (inactive); in the assay on HL-60, 2.18 µM (inactive). The GI50 in the assay with M14 was 0.242 µM (active); in the assay on NCI-H23, 5.14 µM (inactive); in the assay with SNB-75, 15 µM (inactive); with SF-295, 2.49 µM (inactive); with SF-539, 5.82 µM (inactive); with EKVX, 5.15 µM (inactive). For the same compound, the GI50 in the assay on SN12C was 13.7 µM (inactive); with UACC-257, 13.8 µM (inactive); with OVCAR-5 it was 10.6 µM (inactive); with UACC-62, 0.36 µM (active).

Consider `O=[N+]([O-])c1ccc(/C=C(/c2ccc([N+](=O)[O-])o2)S(=O)(=O)c2ccccc2)o1`, for which the GI50 was 6.14 µM (inactive) with OVCAR-3; 18.5 µM (inactive) in the assay on CAKI-1; 2.26 µM (inactive) with SW-620; 11.9 µM (inactive) with SK-MEL-5; 4.1 µM (inactive) in the assay with TK-10; 2.75 µM (inactive) in the assay on HL-60. The GI50 in the assay with PC-3 is 16.4 µM (inactive); in the assay on M14 it was 11.1 µM (inactive); in the assay on NCI-H23, 19.7 µM (inactive); with SNB-75 it was 19 µM (inactive); with MDA-MB-435, 15.2 µM (inactive); in the assay on SF-295, 18.6 µM (inactive). Moreover, the GI50 is 18.1 µM (inactive) in the assay with SF-539; 0.0885 µM (active) in the assay with EKVX; 1.84 µM (inactive) in the assay with UACC-257; 18.6 µM (inactive) in the assay with OVCAR-5; 11.4 µM (inactive) in the assay with T47D; 6.17 µM (inactive) in the assay on UACC-62.

Regarding `NNc1nncn1N`, the GI50 is > 49.7 µM (inactive) with OVCAR-3; > 100 µM (inactive) in the assay with CAKI-1; > 57.1 µM (inactive) in the assay with SW-620; > 100 µM (inactive) with SK-MEL-5; > 100 µM (inactive) in the assay on TK-10; 5.71 µM (inactive) in the assay with HL-60. In addition, the GI50 in the assay with PC-3 is > 100 µM (inactive); in the assay on M14, > 100 µM (inactive); in the assay on NCI-H23, > 51.2 µM (inactive); in the assay on SNB-75, > 100 µM (inactive); in the assay on MDA-MB-435, 19.2 µM (inactive); with SF-295 it was > 100 µM (inactive). Further, the GI50 was > 53.8 µM (inactive) in the assay on SF-539; > 100 µM (inactive) in the assay on EKVX; > 73.1 µM (inactive) in the assay on SN12C; > 100 µM (inactive) with UACC-257; > 100 µM (inactive) in the assay on OVCAR-5; 63 µM (inactive) in the assay with T47D. Besides, the GI50 in the assay with UACC-62 is > 100 µM (inactive).

For the compound `COc1ccc(N2C(=O)C(N3C(=O)C=CC3=O)C2C=O)cc1` (configuration not stated), the GI50 in the assay on OVCAR-3, with CAKI-1, in the assay on SW-620, in the assay on SK-MEL-5, in the assay with TK-10 and with HL-60 was > 100 µM (inactive) throughout. Further, the GI50 in the assay with M14, in the assay on NCI-H23, in the assay on SNB-75, in the assay with SF-295, in the assay on SF-539 and in the assay with EKVX was > 100 µM (inactive) in each case. For the same compound, the GI50 in the assay on SN12C, in the assay on UACC-257, in the assay with OVCAR-5 and in the assay on UACC-62 was > 100 µM (inactive) each time.

As to `N#CC(C#N)=C/C=C(\Sc1c(Cl)c(Cl)nc(Cl)c1Cl)c1ccc(Cl)cc1`, the GI50 with OVCAR-3 is 11.6 µM (inactive); in the assay with CAKI-1, 14.5 µM (inactive); in the assay on SW-620, 5.77 µM (inactive); in the assay with SK-MEL-5 it was 13 µM (inactive); with TK-10 it was 21.2 µM (inactive); in the assay on HL-60, 10.8 µM (inactive). The GI50 with PC-3 was 30 µM (inactive); in the assay on M14 it was 19.5 µM (inactive); in the assay with NCI-H23 it was 16.2 µM (inactive); in the assay on SNB-75 it was 20.1 µM (inactive); in the assay on MDA-MB-435, 5.4 µM (inactive); in the assay on SF-295 it was 19 µM (inactive). For the same compound, the GI50 is 19.4 µM (inactive) in the assay with SF-539; 32.4 µM (inactive) with EKVX; 20.8 µM (inactive) in the assay on SN12C; 14.8 µM (inactive) in the assay on UACC-257; 21.5 µM (inactive) with OVCAR-5; 31.6 µM (inactive) in the assay on T47D. Further, in the assay on UACC-62, the GI50 is 14.3 µM (inactive).

With `CCN(CC)CC(=O)N1CCc2c([nH]c3ccccc23)C1c1cccnc1` (configuration not stated), the GI50 in the assay on OVCAR-3, in the assay with CAKI-1, in the assay on SW-620, in the assay with SK-MEL-5, with TK-10 and in the assay on HL-60 was > 100 µM (inactive) in each case. Besides, the GI50 is > 100 µM (inactive) in the assay with M14; > 100 µM (inactive) in the assay on NCI-H23; 73.6 µM (inactive) with SNB-75; > 100 µM (inactive) in the assay with SF-295; > 100 µM (inactive) with SF-539; > 100 µM (inactive) with EKVX. For the same compound, the GI50 in the assay with SN12C, with UACC-257, in the assay with OVCAR-5 and with UACC-62 was > 100 µM (inactive) in each case.

As to `NC(=O)c1ncn(CCN2CCN(C(=O)NCCCCCCNC(=O)N3CCN(CCn4cnc(C(N)=O)c4N)CC3)CC2)c1N`, the GI50 in the assay with OVCAR-3, in the assay on CAKI-1, with SW-620, in the assay on SK-MEL-5, in the assay on TK-10 and in the assay with HL-60 was > 100 µM (inactive) each time. Further, the GI50 in the assay with M14, in the assay on NCI-H23, with SNB-75, in the assay with SF-295, in the assay with SF-539 and in the assay with EKVX was > 100 µM (inactive) each time. The GI50 in the assay with SN12C, in the assay with UACC-257, in the assay on OVCAR-5 and with UACC-62 was > 100 µM (inactive) each time.

Regarding `O=c1c2c(-c3ccccc3)c3ccccc3nc2cnn1-c1ccccc1`, the GI50 is 55.5 µM (inactive) in the assay on OVCAR-3; > 100 µM (inactive) with CAKI-1; 91.4 µM (inactive) with SW-620; > 100 µM (inactive) in the assay on SK-MEL-5; > 100 µM (inactive) in the assay on TK-10; 29.4 µM (inactive) in the assay on HL-60. Also, the GI50 with M14, with NCI-H23, in the assay on SNB-75, in the assay with SF-295, in the assay on SF-539 and in the assay on EKVX was > 100 µM (inactive) throughout. The GI50 with SN12C, with UACC-257, in the assay with OVCAR-5 and with UACC-62 was > 100 µM (inactive) throughout.

For the compound `COc1cc(C[S+]2CCCC2)c(SC)cc1C[S+]1CCCC1`, the GI50 in the assay with OVCAR-3, with CAKI-1, in the assay on SW-620, in the assay with SK-MEL-5, with TK-10 and in the assay on HL-60 was > 100 µM (inactive) each time. In addition, the GI50 is > 100 µM (inactive) in the assay with M14; > 100 µM (inactive) in the assay on NCI-H23; 47.4 µM (inactive) in the assay on SNB-75; > 100 µM (inactive) in the assay with SF-295; > 100 µM (inactive) with SF-539; > 100 µM (inactive) in the assay with EKVX. Further, the GI50 in the assay on SN12C, with UACC-257, in the assay on OVCAR-5 and in the assay with UACC-62 was > 100 µM (inactive) throughout.

`CC(=O)O[C@H]1[C@H](O[C@H]2CC[C@]34C[C@]35CC[C@]3(C)[C@@H]([C@@]6(C)CC[C@@H](C(C)(C)O)O6)[C@@H](O)C[C@@]3(C)[C@@H]5C[C@H](O[C@@H]3O[C@H](CO)[C@@H](O)[C@H](O)[C@H]3O)[C@H]4C2(C)C)OC[C@@H](O)[C@@H]1O`: the GI50 in the assay on OVCAR-3 was > 100 µM (inactive); in the assay on CAKI-1 it was > 100 µM (inactive); with SW-620 it was 25.4 µM (inactive); in the assay with SK-MEL-5 it was > 100 µM (inactive); with TK-10 it was > 100 µM (inactive); with HL-60 it was 35.6 µM (inactive). Moreover, the GI50 in the assay on M14 is 54.6 µM (inactive); in the assay with NCI-H23, > 100 µM (inactive); with SNB-75, > 100 µM (inactive); in the assay on SF-295, > 100 µM (inactive); with SF-539, 40.4 µM (inactive); in the assay on EKVX it was > 100 µM (inactive). Further, the GI50 in the assay with SN12C is > 100 µM (inactive); in the assay on UACC-257, > 100 µM (inactive); in the assay with OVCAR-5, 72.6 µM (inactive); in the assay on UACC-62 it was > 100 µM (inactive).
